The target in one experiment is CDK2/Cyclin E2 (Homo sapiens, UniProt P24941). Briefly: CDK2/CyclinE2 enzymatic activity assay (TR-FRET). The class given is biochemical. The following applies: ATP 1 mM final, read-out: CDK2_E1 IC50. Summed up:
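Insect-cell-expressed CDK2/Cyclin E2 (1 nM), ULight-4E-BP1 (50 nM) and ATP (1 mM) in HEPES pH 7.4 buffer were preincubated 20 min at RT with compound (9-dose, 3-fold), started with 10 mM MgCl2 and run 45 min at 37 °C. EDTA/Eu-anti-P-4E-BP1 stop, 60 min TR-FRET detection; IC50 from 4-parameter Hill fit.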
For orientation: TR-FRET usually uses a lanthanide donor and a delayed reading to cut background.

Another experiment concerns the target T1, CDK4/Cyclin D1 (Homo sapiens, UniProt P11802).
T1 construct: purchased ProQinase; host or cells: insect cell
The experiment can be described thus: CDK4/CyclinD1 enzymatic activity assay (TR-FRET). The class given is biochemical. The settings on record: ATP 2 mM final, read-out: CDK4_D1 IC50. Summed up: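 Insect-cell-expressed CDK4/Cyclin D1 (1 nM) phosphorylated ULight-4E-BP1 peptide (100 nM) at 2 mM ATP in HEPES pH 7.4 buffer after 20 min compound preincubation. Reaction started with 10 mM MgCl2, ran 45 min at 37 °C, then EDTA quench and Eu-anti-phospho-4E-BP1 TR-FRET detection. IC50 from 9-point 3-fold dilutions, 4-parameter fit.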

The next experiment deals with OVCAR3 p-RB. The experiment can be described thus: pRB ICW assay in OVCAR3 cells. Type of experiment: cell-based. The following applies: Homo sapiens, OVCAR-3, incubated with compound for 2 hours. In short, it runs like this: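 OVCAR3 cells were treated 2 h at 37 °C with a 9-point half-log compound series, in duplicate, with 10 μM reference compound as maximum inhibition. Cells were then fixed, permeabilized and stained with anti-phospho-RB plus DRAQ5. In-cell western intensities were read at 700/800 nm on Odyssey CLx.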

SMILES strings stand for the structures.

T1 sequence (P11802 whole entry): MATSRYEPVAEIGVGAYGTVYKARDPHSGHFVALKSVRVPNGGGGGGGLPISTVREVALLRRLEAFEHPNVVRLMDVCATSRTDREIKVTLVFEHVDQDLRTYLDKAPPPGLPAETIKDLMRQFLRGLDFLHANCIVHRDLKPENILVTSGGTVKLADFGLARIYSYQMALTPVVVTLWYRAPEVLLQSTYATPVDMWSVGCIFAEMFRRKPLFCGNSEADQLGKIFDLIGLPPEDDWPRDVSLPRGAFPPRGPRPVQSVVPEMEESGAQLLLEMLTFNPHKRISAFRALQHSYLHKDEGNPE
T1 sequence (P24385 whole entry partner): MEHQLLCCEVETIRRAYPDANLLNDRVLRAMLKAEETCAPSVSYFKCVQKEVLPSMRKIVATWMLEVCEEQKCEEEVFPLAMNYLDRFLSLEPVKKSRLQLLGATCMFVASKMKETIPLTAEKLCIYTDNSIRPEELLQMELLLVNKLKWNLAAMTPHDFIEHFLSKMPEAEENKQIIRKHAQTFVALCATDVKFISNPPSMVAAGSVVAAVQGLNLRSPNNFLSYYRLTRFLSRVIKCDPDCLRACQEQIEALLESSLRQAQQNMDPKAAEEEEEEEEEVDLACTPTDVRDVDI

In general, IC50 refers to the midpoint of a concentration-inhibition curve. As to `C[C@@H]1CN(S(=O)(=O)c2cn(C)cn2)CC[C@@H]1Nc1ncc(C(F)(F)F)c(-c2cnc(CC(C)(C)O)s2)n1` [Example 72, 2-methyl-1-(5-(2-(((3R,4S)-3-methyl-1-((1-methyl-1H-imidazol-4-yl)sulfonyl)piperidin-4-yl)amino)-5-(trifluoromethyl)pyrimidin-4-yl)thiazol-2-yl)propan-2-ol], the IC50 is no more than 100 nM at CDK2/Cyclin E2, 100 to 1000 nM at CDK4/Cyclin D1 and 100 to 1000 nM in the experiment on OVCAR3 p-RB.

As for `Cn1cc(S(=O)(=O)N2CC[C@H](Nc3ncc(C(F)(F)F)c(-c4cnc(CC(C)(C)O)s4)n3)[C@H](F)C2)cn1` [Example 73, 1-(5-(2-(((3R,4S)-3-fluoro-1-((1-methyl-1H-pyrazol-4-yl)sulfonyl)piperidin-4-yl)amino)-5-(trifluoromethyl)pyrimidin-4-yl)thiazol-2-yl)-2-methylpropan-2-ol], the half-maximal inhibitory concentration (IC50) on CDK2/Cyclin E2, at CDK4/Cyclin D1 and with OVCAR3 p-RB was no more than 100 nM each time.

As to `Cn1cnc(S(=O)(=O)N2CC[C@H](Nc3ncc(C(F)(F)F)c(-c4cnc(CC(C)(C)O)s4)n3)[C@H](F)C2)c1` [Example 74, 1-(5-(2-(((3R,4S)-3-fluoro-1-((1-methyl-1H-imidazol-4-yl)sulfonyl)piperidin-4-yl)amino)-5-(trifluoromethyl)pyrimidin-4-yl)thiazol-2-yl)-2-methylpropan-2-ol], the IC50 on CDK2/Cyclin E2, at CDK4/Cyclin D1 and in the experiment on OVCAR3 p-RB was no more than 100 nM throughout.

For the compound `Cn1cnc(S(=O)(=O)N2CCC(Nc3ncc(C(F)(F)F)c(-c4cnc(C(O)C(C)(C)O)s4)n3)CC2)c1` (stereo not drawn) [Example 75, 2-methyl-1-(5-(2-((1-((1-methyl-1H-imidazol-4-yl)sulfonyl)piperidin-4-yl)amino)-5-(trifluoromethyl)pyrimidin-4-yl)thiazol-2-yl)propane-1,2-diol], the half-inhibitory concentration (IC50) at CDK2/Cyclin E2 was no more than 100 nM; at CDK4/Cyclin D1, no more than 100 nM; in the experiment with OVCAR3 p-RB, 100 to 1000 nM.

Regarding `CC(C)(O)Cc1ncc(-c2nc(NC3CCN(S(=O)(=O)c4cnc5cccnn45)CC3)ncc2C(F)(F)F)s1` [Example 76, 1-(5-(2-((1-(imidazo[1,2-b]pyridazin-3-ylsulfonyl)piperidin-4-yl)amino)-5-(trifluoromethyl)pyrimidin-4-yl)thiazol-2-yl)-2-methylpropan-2-ol], the results for the half-maximal inhibitory concentration (IC50) on CDK2/Cyclin E2, on CDK4/Cyclin D1 and with OVCAR3 p-RB were no more than 100 nM, 100 to 1000 nM and no more than 100 nM, respectively.

As to `CC(C)(O)Cc1ncc(-c2nc(NC3CCN(S(=O)(=O)c4cnn(CC#N)c4)CC3)ncc2C(F)(F)F)s1` [Example 77], the IC50 at CDK2/Cyclin E2, at CDK4/Cyclin D1 and in the experiment with OVCAR3 p-RB was no more than 100 nM in each case.

On to `CC(C)(O)Cc1ncc(-c2nc(NC3CCN(S(=O)(=O)CCCN4CCC(C#N)CC4)CC3)ncc2C(F)(F)F)s1` [Example 78, 1-(3-((4-((4-(2-(2-hydroxy-2-methylpropyl)thiazol-5-yl)-5-(trifluoromethyl)pyrimidin-2-yl)amino)piperidin-1-yl)sulfonyl)propyl)piperidine-4-carbonitrile], for which the concentration for half-maximal inhibition (IC50) on CDK2/Cyclin E2 is no more than 100 nM; on CDK4/Cyclin D1, no more than 100 nM; in the experiment on OVCAR3 p-RB it was 100 to 1000 nM.

For `CC(C)(O)Cc1ncc(-c2nc(NC3CCN(S(=O)(=O)CCCN4CCOCC4)CC3)ncc2C(F)(F)F)s1` [Example 79, 2-methyl-1-(5-(2-((1-((3-morpholinopropyl)sulfonyl)piperidin-4-yl)amino)-5-(trifluoromethyl)pyrimidin-4-yl)thiazol-2-yl)propan-2-ol], the 50% inhibitory concentration (IC50) at CDK2/Cyclin E2 is no more than 100 nM; on CDK4/Cyclin D1, no more than 100 nM; in the experiment with OVCAR3 p-RB, 100 to 1000 nM.

Consider `CN1CCN(CCCS(=O)(=O)N2CCC(Nc3ncc(C(F)(F)F)c(-c4cnc(CC(C)(C)O)s4)n3)CC2)CC1` [Example 80, 2-methyl-1-(5-(2-((1-((3-(4-methylpiperazin-1-yl)propyl)sulfonyl)piperidin-4-yl)amino)-5-(trifluoromethyl)pyrimidin-4-yl)thiazol-2-yl)propan-2-ol], for which the IC50 at CDK2/Cyclin E2 was no more than 100 nM; at CDK4/Cyclin D1, no more than 100 nM; with OVCAR3 p-RB, 100 to 1000 nM.

For the compound `CC(O)c1ncc(-c2nc(NC3CCN(S(C)(=O)=O)CC3)ncc2C(F)(F)F)s1` (stereo not drawn) [Example 81, 1-(5-(2-((1-(methylsulfonyl)piperidin-4-yl)amino)-5-(trifluoromethyl)pyrimidin-4-yl)thiazol-2-yl)ethan-1-ol], the results for the IC50 at CDK2/Cyclin E2, at CDK4/Cyclin D1 and in the experiment on OVCAR3 p-RB were no more than 100 nM, no more than 100 nM and 100 to 1000 nM, respectively.

Turning to `CC(O)c1ncc(-c2nc(NC3CCN(S(=O)(=O)c4cnn(C)c4)CC3)ncc2C(F)(F)F)s1` (stereo not drawn) [Example 82, 1-(5-(2-((1-((1-methyl-1H-pyrazol-4-yl)sulfonyl)piperidin-4-yl)amino)-5-(trifluoromethyl)pyrimidin-4-yl)thiazol-2-yl)ethan-1-ol], the concentration for half-maximal inhibition (IC50) on CDK2/Cyclin E2, on CDK4/Cyclin D1 and in the experiment on OVCAR3 p-RB was no more than 100 nM each time.

`CC(O)c1ncc(-c2nc(NC3CCN(S(=O)(=O)c4cn(C)cn4)CC3)ncc2C(F)(F)F)s1` (stereo not drawn) [Example 83, 1-(5-(2-((1-((1-methyl-1H-imidazol-4-yl)sulfonyl)piperidin-4-yl)amino)-5-(trifluoromethyl)pyrimidin-4-yl)thiazol-2-yl)ethan-1-ol]: the 50% inhibitory concentration (IC50) on CDK2/Cyclin E2, at CDK4/Cyclin D1 and in the experiment with OVCAR3 p-RB was no more than 100 nM each time.

With `Cn1cc(S(=O)(=O)N2CCC(Nc3ncc(C(F)(F)F)c(-c4cnc(C(O)C5CC5)s4)n3)CC2)cn1` (stereo not drawn) [Example 84, cyclopropyl(5-(2-((1-((1-methyl-1H-pyrazol-4-yl)sulfonyl)piperidin-4-yl)amino)-5-(trifluoromethyl)pyrimidin-4-yl)thiazol-2-yl)methanol], the IC50 on CDK2/Cyclin E2, on CDK4/Cyclin D1 and in the experiment on OVCAR3 p-RB was no more than 100 nM throughout.

Take `CC(O)c1ncc(-c2nc(NC3CCN(S(=O)(=O)c4ccsc4)CC3)ncc2C(F)(F)F)s1` (stereo not drawn) [Example 85, 1-(5-(2-((1-(thiophen-3-ylsulfonyl)piperidin-4-yl)amino)-5-(trifluoromethyl)pyrimidin-4-yl)thiazol-2-yl)ethan-1-ol]: the half-maximal inhibitory concentration (IC50) at CDK2/Cyclin E2, at CDK4/Cyclin D1 and with OVCAR3 p-RB was no more than 100 nM in each case.

As to `COCc1nn(C)cc1S(=O)(=O)N1CCC(Nc2ncc(C(F)(F)F)c(-c3cnc(C(C)O)s3)n2)CC1` (stereo not drawn) [Example 86, 1-(5-(2-((1-((3-(methoxymethyl)-1-methyl-1H-pyrazol-4-yl)sulfonyl)piperidin-4-yl)amino)-5-(trifluoromethyl)pyrimidin-4-yl)thiazol-2-yl)ethan-1-ol], the IC50 at CDK2/Cyclin E2, at CDK4/Cyclin D1 and with OVCAR3 p-RB was no more than 100 nM throughout.

In the case of `CC(O)c1ncc(-c2nc(NC3CCN(S(=O)(=O)c4cnn(CC(N)=O)c4)CC3)ncc2C(F)(F)F)s1` (stereo not drawn) [Example 87, 2-(4-((4-((4-(2-(1-hydroxyethyl)thiazol-5-yl)-5-(trifluoromethyl)pyrimidin-2-yl)amino)piperidin-1-yl)sulfonyl)-1H-pyrazol-1-yl)acetamide], the results for the half-maximal inhibitory concentration (IC50) on CDK2/Cyclin E2, on CDK4/Cyclin D1 and with OVCAR3 p-RB were no more than 100 nM, no more than 100 nM and 100 to 1000 nM, respectively.

On to `CC(=O)N1CCC(S(=O)(=O)N2CCC(Nc3ncc(C(F)(F)F)c(-c4cnc(C(C)O)s4)n3)CC2)CC1` (stereo not drawn) [Example 88, 1-(4-((4-((4-(2-(1-hydroxyethyl)thiazol-5-yl)-5-(trifluoromethyl)pyrimidin-2-yl)amino)piperidin-1-yl)sulfonyl)piperidin-1-yl)ethan-1-one], for which the IC50 on CDK2/Cyclin E2 is no more than 100 nM; on CDK4/Cyclin D1, no more than 100 nM; in the experiment with OVCAR3 p-RB, 100 to 1000 nM.

In the case of `Cn1cc(S(=O)(=O)N2CCC(Nc3ncc(C(F)(F)F)c(-c4cnc(C(O)C(F)(F)F)s4)n3)CC2)cn1` (stereo not drawn) [Example 89, 2,2,2-trifluoro-1-(5-(2-((1-((1-methyl-1H-pyrazol-4-yl)sulfonyl)piperidin-4-yl)amino)-5-(trifluoromethyl)pyrimidin-4-yl)thiazol-2-yl)ethan-1-ol], the IC50 on CDK2/Cyclin E2, on CDK4/Cyclin D1 and in the experiment with OVCAR3 p-RB was no more than 100 nM in each case.

With `Cn1cnc(S(=O)(=O)N2CCC(Nc3ncc(C(F)(F)F)c(-c4cnc(C(O)C(F)(F)F)s4)n3)CC2)c1` (stereo not drawn) [Example 90, 2,2,2-trifluoro-1-(5-(2-((1-((1-methyl-1H-imidazol-4-yl)sulfonyl)piperidin-4-yl)amino)-5-(trifluoromethyl)pyrimidin-4-yl)thiazol-2-yl)ethan-1-ol], the IC50 on CDK2/Cyclin E2, at CDK4/Cyclin D1 and with OVCAR3 p-RB was no more than 100 nM each time.

With `Cn1cnc(S(=O)(=O)N2CCC(Nc3ncc(C(F)(F)F)c(-c4cnc(C(O)C(F)F)s4)n3)CC2)c1` (stereo not drawn) [Example 91, 2,2-difluoro-1-(5-(2-((1-((1-methyl-1H-imidazol-4-yl)sulfonyl)piperidin-4-yl)amino)-5-(trifluoromethyl)pyrimidin-4-yl)thiazol-2-yl)ethan-1-ol], the IC50 at CDK2/Cyclin E2, at CDK4/Cyclin D1 and in the experiment on OVCAR3 p-RB was no more than 100 nM in each case.

The values are drawn from US20240018136A1, “CDK Inhibitors And Their Use As Pharmaceuticals” (Prelude Therapeutics, Incorporated, priority 2022, published 2024).
